From patent publication US11180518B2, “Phenyl-heterocycle-phenyl derivatives for use in the treatment or prevention of melanoma” (MAX-PLANCK-GESELLSCHAFT ZUR FÖRDERUNG DER WISSENSCHAFTEN …, priority 2017, dated 2021)

Experiments:
[1] = tested on: α-synuclein-expressing WM983-B human metastatic melanoma cells; experiment: Test screening of DPP compounds in human metastatic melanoma cells (cell death read-out); assay type: cell-based; conditions: WM983B, second 10 μM dose at 48 hr, serum-free culture medium, read at 48 h / 96 h
Method: To determine the impact of the DPP compounds on high-level α-synuclein-expressing human melanoma cells, WM983-B melanoma cells were plated, in duplicate, in 12-well tissue culture plates in cell culture medium containing 10% fetal bovine serum. Twenty-four hours later, the cells were rinsed three-times with serum-free medium, followed by addition of serum-free medium containing each DPP compound at a dose of 10 μM. Following incubation of the DPP compound-treated cells at 37° C. for 48 hr, each DPP compound was added to the cells at a second 10 μM dose. Using light microscopy, changes in the cells' morphology>detachment of the cells from the cell culture dish/floating in the cell culture medium>cell death were recorded on a scale of 0, +, ++, +++, ++++ at the 24 hr, 48 hr, 72 hr and 96 hr time-point following addition of DPP compound.
The DPP compounds were added to α-synuclein-expressing WM983-B human metastatic melanoma cells.

SK-MEL-5 melanoma cells [2] = experiment: Autophagy: LC3 immunofluorescence; assay type: cell-based, human; conditions: compared with WM983-B cells
Method: (§1) We observed a clear effect of the anle compounds on the autophagy pathway of the melanoma cells. […] Following addition of anle138c, the effect was seen later with levels of 8% at 24 hr and 78% after 96 hr.
(§2) Autophagy. WM983-B and SK-MEL-5 cells that for 24 or 48 hr were treated with anle138 or had received DMSO only were fixed for 20 min with 3.7% PFA, permeabilized, blocked, and probed with an anti-LC3B [clone 2G6] antibody (nanoTools Antikörpertechnik GmbH & Co. KG, Teningen, Germany), followed by a donkey anti-mouse Alexa-488 secondary antibody and Draq5 DNA counterstain. Confocal image stacks were obtained with a 63×NA 1.2 objective on a Zeiss LSM 510 Meta confocal microscope.

WM983-B melanoma cells [3] = experiment: Autophagy: LC3 immunofluorescence; assay type: cell-based, human
Method: as §1, §2

[4] = tested on: high-level α-synuclein expressing cell lines WM983-B; experiment: Initial screen of sixteen compounds from the DPP library; assay type: cell-based, human
Binding to FBS = assay type: in vitro ADME
SK-MEL-5 melanoma cells [5] = experiment: Cell morphology (phase-contrast); assay type: cell-based, human; conditions: increasing doses, serum-free medium; time- and dose-dependent
From the text: (§3) To assess the possible impact of anle138b as well as anle138c on the different melanoma cell lines, WM983-A, WM983-B and SK-MEL-5, we treated them with increasing doses of either compound, dissolved in dimethyl sulfoxide (DMSO), and added to serum-free culture medium. […] We also observed that treatment with anle138b caused a more rapid morphological change than anle138c. To determine whether the effect of the two anle compounds was related to the amount of α-synuclein produced by the cells, we compared the proliferation of the (VGP) WM983-A high-level and the (RGP/VGP) WM1158 low-level α-synuclein-producing melanoma cells over a period of 96 hr, with replenishment of each anle compound at 48 hr (FIGS. 8A and B).
(§4) 10 or 30 mM stock solutions of anle138b or anle138c were made in DMSO. Since anle138b as well as anle138c bind strongly to FBS, melanoma cells, plated for 24 hr in tissue-culture medium containing 10% FBS, were rinsed three times with serum-free medium prior to addition of anle138b, anle138c, or an equivalent volume of DMSO only in serum-free medium. Forty-eight hours later, the cell culture medium was removed, followed by addition of an equivalent dose of anle138b or anle138c, or DMSO only in serum-free culture medium. […] Proliferation of melanoma cells that had received DMSO only, or were treated with anle138b was determined by counting the cells with a hemocytometer.
(§5) Cell morphology. Phase-contrast or DIC images of the melanoma cells that had been treated for various times with anle138b or anle138c, or had received DMSO only were captured with a 10×NA 0.6 objective on a Zeiss Axiovert 100 microscope with a Hamamatsu Orca charge-coupled device (CCD) camera. At least four images, at random areas per culture dish, were recorded for each time point.

WM1158 melanoma cells [6] = experiment: Cell morphology (phase-contrast); assay type: cell-based, human; conditions: 10 μM, up to 96 hr, replenishment at 48 hr
From the text: as §3, §4, §5

WM983-B melanoma cells [7] = experiment: Cell morphology (phase-contrast); assay type: cell-based, human; conditions: increasing doses, serum-free medium; time- and dose-dependent
From the text: as §3, §4, §5

[8] = tested on: WM983-A, WM983-B, and SK-MEL-5 melanoma cell lines; experiment: Apoptosis markers in treated melanoma cells; assay type: cell-based, human
From the text: Although the morphological changes in the WM983-A, WM983-B, and SK-MEL-5 melanoma cell lines following addition of anle138b occurred quite rapidly, they were not indicative of the cells undergoing apoptosis. […] Differential interference contrast (DIC) images of the morphology of the anle138b-treated WM983-B, SK-MEL-5, and WM1158 melanoma cells from the same panels are shown in FIG. 9.

WM1158 melanoma cells [9] = experiment: Melanoma cell proliferation analysis; assay type: cell-based, human; conditions: over 96 hr, replenishment at 48 hr
From the text: as §3, §4

α-synuclein monomers = α-synuclein monomers (Homo sapiens, UniProt P37840); conditions: cited from earlier work

| SMILES | cytotoxicity at 10 µM [1] [%] | also measured |
| --- | --- | --- |
| Brc1cccc(-c2cc(-c3ccc4c(c3)OCCCO4)n[nH]2)c1 | 100 |  |
| Brc1cccc(-c2cc(-c3ccc4c(c3)OCCO4)n[nH]2)c1 | 100 |  |
| Brc1cccc(-c2nc(-c3ccc4c(c3)OCCO4)co2)c1 | 100 |  |
| Brc1cccc(-c2cc(-c3ccc4nccnc4c3)n[nH]2)c1 | 100 |  |
| CN1CCOc2cc(-c3cc(-c4cccc(Br)c4)[nH]n3)ccc21 | 100 |  |
| COc1ccc(-c2cc(-c3cccc(F)c3)on2)cc1OC | 100 |  |
| Oc1ccc(-c2cc(-c3cccc(F)c3)on2)cc1O | 100 |  |
| Oc1ccc(-c2noc(-c3cccc(F)c3)n2)cc1O | 100 |  |
| Brc1cccc(-c2c[nH]c(-c3ccc4c(c3)OCO4)n2)c1 | 100 |  |
| FCCn1nc(-c2cccc(Br)c2)cc1-c1ccc2c(c1)OCO2 | 100 |  |
| Nc1cccc(-c2ncc(-c3ccc(Cl)c(Cl)c3)o2)c1 | 100 |  |
| COc1cccc(-c2c[nH]c(-c3cccc(Br)c3)n2)c1 | 100 |  |
| Clc1cccc(-c2cc(-c3ccc4c(c3)OCCO4)n[nH]2)c1 | 100 |  |
| CC1(C)CCc2cc(-c3cc(-c4cccc(Br)c4)[nH]n3)ccc2O1 | 100 |  |
| Clc1cccc(-c2cc(-c3ccc4c(c3)OCO4)n[nH]2)c1 | 100 |  |
| CN(C)c1ccc(-c2cc(-c3cccc(F)c3)on2)cc1 | 50 to 90 |  |
| Oc1ccc(-c2cc(-c3cccc(F)c3)[nH]n2)cc1O | 50 to 90 |  |

| SMILES | cytotoxicity at 10 µM [1] [%] | also measured |
| --- | --- | --- |
| Oc1cccc(-c2cc(-c3cccc(Cl)c3)[nH]n2)c1 | 50 to 90 |  |
| Cn1nc(-c2ccc3c(c2)OCO3)cc1-c1cccc(Br)c1 | 50 to 90 |  |
| Cc1ccc(Br)cc1-c1nc(-c2cccc(OC(F)(F)F)c2)no1 | 50 to 90 |  |
| Brc1cccc(-c2cc(-c3ccc4ccoc4c3)n[nH]2)c1 | 50 to 90 |  |
| FC1(F)Oc2ccc(-c3cc(-c4cccc(Br)c4)[nH]n3)cc2O1 | 20 to 50 |  |
| Brc1cccc(-c2cc(-c3ccc4ccccc4c3)n[nH]2)c1 | 20 to 50 |  |
| Nc1ccc(-c2cc(-c3cccc(Cl)c3)[nH]n2)cc1 | 20 to 50 |  |
| COc1ccc(-c2noc(-c3cccc(Cl)c3)n2)cc1 | 20 to 50 |  |
| Cn1ccc2cc(-c3cc(-c4cccc(Br)c4)[nH]n3)ccc21 | 20 to 50 |  |
| Fc1cccc(-c2cc(-c3ccc4c(c3)OCO4)n[nH]2)c1 | < 20 |  |
| CN(C)c1ccc(-c2cc(-c3cccc(Br)c3)no2)cc1 | < 20 |  |
| Brc1cccc(-c2nc(-c3ccc4c(c3)OCO4)no2)c1 | < 20 |  |
| Clc1cc(Cl)cc(-c2nc(-c3ccc4c(c3)OCO4)no2)c1 | < 20 |  |
| Oc1ccc(-c2cc(-c3cccc(Br)c3)[nH]n2)cc1O [anle138c] |  | levels of punctuate LC3 loci (SK-MEL-5 melanoma cells [2]): even higher levels; cells with punctuate upregulation of LC3 (WM983-B melanoma cells [3]; 24 hr, cells still attached): 8%; cells with punctuate upregulation of LC3 (WM983-B melanoma cells [3]; 96 hr): 78%; effect on WM983-B cells in initial screen [4]: significantly affected; binding to FBS (Binding to FBS): bind strongly; morphological changes (SK-MEL-5 melanoma cells [5]): major morphological changes; morphology (WM1158 melanoma cells [6]): did not show a significantly altered morphology; morphological changes (WM983-B melanoma cells [7]): major morphological changes; cleaved caspase 3 (apoptosis) [8]: nor were they positive for cleaved caspase 3; proliferation (WM1158 melanoma cells [9]): reduced proliferation only after 48 hr; binding to α-synuclein monomers (α-synuclein monomers): Neither of these two compounds binds to α-synuclein monomers |
| CN(C)c1ccc(-c2cc(-c3cccc(Br)c3)[nH]n2)cc1 [anle253b, 5-(3-Bromophenyl)-3-(4-dimethylaminophenyl)-1H-pyrazole] |  | effect on WM983-B cells in initial screen [4]: significantly affected |
| Oc1ccc(-c2cc(-c3cccc(Br)c3)[nH]n2)cc1O [drawing 77] | 100 |  |
| CN(C)c1ccc(-c2cc(-c3cccc(Br)c3)[nH]n2)cc1 [drawing 79] | 100 |  |
